Laboratory results reported in patent US9873704B2, “Heterocyclic compounds and their uses” (Amgen Inc., priority 2009, dated 2018).

Target: T1, PI3Kδ (Homo sapiens, UniProt O00329)
T1 construct: Full length p110 subunits of PI3k α, β and δ, N-terminally labeled with polyHis tag; polyHis (N); made in house; host or cells: Sf9 insect cells (baculovirus)
Test: PI3Kδ Alphascreen assay
Type: biochemical
Conditions: not given
Procedure: Full length p110 subunits of PI3k α, β and δ, N-terminally labeled with polyHis tag, were coexpressed with p85 with Baculo virus expression vectors in sf9 insect cells. P110/p85 heterodimers were purified by sequential Ni-NTA, Q-HP, Superdex-100 chromatography. Purified α, β and δ isozymes were stored at −20° C. in 20 mM Tris, pH 8, 0.2M NaCl, 50% glycerol, 5 mM DTT, 2 mM Na cholate. […] The γ isozyme was purified by sequential Ni-NTA, Superdex-200, Q-HP chromatography. The γ isozyme was stored frozen at −80° C. in NaH2PO4, pH 8, 0.2M NaCl, 1% ethylene glycol, 2 mM β-mercaptoethanol.
A PI3K Alphascreen® assay (PerkinElmer, Waltham, Mass.) was used to measure the activity of a panel of four phosphoinositide 3-kinases: PI3Kα, PI3Kβ, PI3Kγ, and PI3Kδ. Enzyme reaction buffer was prepared using sterile water (Baxter, Deerfield, Ill.) and 50 mM Tris HCl pH 7, 14 mM MgCl2, 2 mM sodium cholate, and 100 mM NaCl. 2 mM DTT was added fresh the day of the experiment. The Alphascreen buffer was made using sterile water and 10 mM Tris HCl pH 7.5, 150 mM NaCl, 0.10% Tween 20, and 30 mM EDTA. 1 mM DTT was added fresh the day of the experiment. Compound source plates used for this assay were 384-well Greiner clear polypropylene plates containing test compounds at 5 mM and diluted 1:2 over 22 concentrations. Columns 23 and 24 contained only DMSO as these wells comprised the positive and negative controls, respectively. Source plates were replicated by transferring 0.5 uL per well into 384-well Optiplates (PerkinElmer, Waltham, Mass.).
Each PI3K isoform was diluted in enzyme reaction buffer to 2× working stocks. […] PI(4,5)P2 (Echelon Biosciences, Salt Lake City, Utah) was diluted to 10 μM and ATP was diluted to 20 μM. This 2× stock was used in the assays for PI3Kα and PI3Kβ. For assay of PI3Kγ and PI3Kδ, PI(4,5)P2 was diluted to 10 μM and ATP was diluted to 8 μM to prepare a similar 2× working stock. Alphascreen reaction solutions were made using beads from the anti-GST Alphascreen kit (PerkinElmer, Waltham, Mass.). Two 4× working stocks of the Alphascreen reagents were made in Alphascreen reaction buffer. In one stock, biotinylated-IP4 (Echelon Biosciences, Salt Lake City, Utah) was diluted to 40 nM and streptavidin-donor beads were diluted to 80 μg/mL. In the second stock, PIP3-binding protein (Echelon Biosciences, Salt Lake City, Utah) was diluted to 40 nM and anti-GST-acceptor beads were diluted to 80 μg/mL.
10 μL/well of the appropriate substrate 2× stock (containing 20 μM ATP for the PI3Kα and β assays and containing 8 μM ATP for the PI3Kγ and δ assays) was then added to Columns 1-24 of all plates. Plates were then incubated at room temperature for 20 minutes. In the dark, 10 μL/well of the donor bead solution was added to columns 1-24 of the plates to quench the enzyme reaction. The plates were incubated at room temperature for 30 minutes. Still in the dark, 10 μL/well of the acceptor bead solution was added to columns 1-24 of the plates. The plates were then incubated in the dark for 1.5 hours. The plates were read on an Envision multimode Plate Reader (PerkinElmer, Waltham, Mass.) using a 680 nm excitation filter and a 520-620 nm emission filter.

T1 sequence (O00329 whole entry): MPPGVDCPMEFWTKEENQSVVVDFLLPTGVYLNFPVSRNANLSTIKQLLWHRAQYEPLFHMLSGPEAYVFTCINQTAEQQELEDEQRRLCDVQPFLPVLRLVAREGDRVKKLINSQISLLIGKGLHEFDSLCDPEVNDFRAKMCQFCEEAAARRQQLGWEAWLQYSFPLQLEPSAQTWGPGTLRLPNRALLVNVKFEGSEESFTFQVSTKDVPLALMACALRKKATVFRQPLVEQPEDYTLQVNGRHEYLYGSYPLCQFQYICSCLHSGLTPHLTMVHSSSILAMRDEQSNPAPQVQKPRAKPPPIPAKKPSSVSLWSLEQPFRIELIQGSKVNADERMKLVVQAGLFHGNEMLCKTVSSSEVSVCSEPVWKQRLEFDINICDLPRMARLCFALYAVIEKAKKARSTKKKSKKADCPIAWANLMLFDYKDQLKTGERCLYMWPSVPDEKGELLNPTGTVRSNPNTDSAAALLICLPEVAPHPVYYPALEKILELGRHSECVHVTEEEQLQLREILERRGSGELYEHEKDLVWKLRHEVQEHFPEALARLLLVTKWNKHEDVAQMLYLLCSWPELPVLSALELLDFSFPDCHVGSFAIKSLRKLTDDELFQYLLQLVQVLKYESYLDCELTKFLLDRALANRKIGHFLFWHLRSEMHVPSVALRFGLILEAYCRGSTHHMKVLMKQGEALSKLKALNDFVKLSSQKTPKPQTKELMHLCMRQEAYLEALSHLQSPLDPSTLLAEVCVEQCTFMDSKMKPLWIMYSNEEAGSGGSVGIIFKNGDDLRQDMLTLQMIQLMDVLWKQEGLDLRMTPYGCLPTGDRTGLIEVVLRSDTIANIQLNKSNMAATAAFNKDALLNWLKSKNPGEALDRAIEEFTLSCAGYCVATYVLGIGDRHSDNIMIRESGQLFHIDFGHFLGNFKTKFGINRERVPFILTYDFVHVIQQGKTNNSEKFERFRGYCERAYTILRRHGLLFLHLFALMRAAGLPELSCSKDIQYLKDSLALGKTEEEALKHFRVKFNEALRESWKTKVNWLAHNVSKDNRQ
T1 sequence (P27986 whole entry partner): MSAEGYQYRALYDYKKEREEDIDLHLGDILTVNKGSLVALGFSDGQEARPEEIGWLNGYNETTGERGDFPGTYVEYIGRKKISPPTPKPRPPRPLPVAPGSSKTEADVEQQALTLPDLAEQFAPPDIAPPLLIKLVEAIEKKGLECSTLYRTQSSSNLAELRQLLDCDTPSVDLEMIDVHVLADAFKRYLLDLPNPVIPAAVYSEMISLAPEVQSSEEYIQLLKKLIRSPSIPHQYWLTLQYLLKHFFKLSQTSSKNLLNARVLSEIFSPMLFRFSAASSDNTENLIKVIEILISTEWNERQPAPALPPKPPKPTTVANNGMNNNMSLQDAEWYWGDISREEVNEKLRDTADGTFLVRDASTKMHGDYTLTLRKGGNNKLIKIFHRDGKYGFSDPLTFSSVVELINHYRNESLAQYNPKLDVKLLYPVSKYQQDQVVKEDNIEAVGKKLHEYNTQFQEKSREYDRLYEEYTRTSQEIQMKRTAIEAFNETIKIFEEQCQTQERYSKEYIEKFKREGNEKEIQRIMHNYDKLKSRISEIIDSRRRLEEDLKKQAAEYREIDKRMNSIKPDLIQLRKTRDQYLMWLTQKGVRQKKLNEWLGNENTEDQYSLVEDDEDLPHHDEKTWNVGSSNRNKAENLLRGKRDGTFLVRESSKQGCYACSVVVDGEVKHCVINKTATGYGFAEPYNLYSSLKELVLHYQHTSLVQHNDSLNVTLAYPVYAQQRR

In order of rising Ki:
1. C[C@H](Nc1ncnc(N)c1C#N)c1nc2ccc(F)cc2c(C(=O)N2CCOCC2)c1-c1ccccc1 [4-amino-6-(((1S)-1-(6-fluoro-4-(4-morpholinylcarbonyl)-3-phenyl-2-quinolinyl)ethyl)amino)-5-pyrimidinecarbonitrile]  0.505 nM
2. C[C@H](Nc1ncnc(N)c1C#N)c1nc2ccc(F)cc2c(C(=O)N2CC[C@H](O)C2)c1-c1ccccc1 [4-amino-6-(((1S)-1-(6-fluoro-4-(((3S)-3-hydroxy-1-pyrrolidinyl)carbonyl)-3-phenyl-2-quinolinyl)ethyl)amino)-5-pyrimidinecarbonitrile]  0.657 nM
3. C[C@H](Nc1ncnc(N)c1C#N)c1nc2ccc(F)cc2c(S(C)(=O)=O)c1-c1ccccc1 [4-amino-6-(((1S)-1-(6-fluoro-4-(methylsulfonyl)-3-phenyl-2-quinolinyl)ethyl)amino)-5-pyrimidinecarbonitrile]  0.741 nM
4. C[C@H](Nc1ncnc2[nH]cnc12)c1nc2ccc(F)cc2c(S(C)(=O)=O)c1-c1ccccc1 [(S)—N-(1-(6-fluoro-4-(methylsulfonyl)-3-phenylquinolin-2-yl)ethyl)-9H-purin-6-amine]  1.12 nM
5. COc1c(-c2ccccc2)c([C@H](C)Nc2ncnc(N)c2C#N)nc2ccc(F)cc12 [(S)-4-amino-6-(1-(6-fluoro-4-methoxy-3-phenylquinolin-2-yl)ethylamino)pyrimidine-5-carbonitrile]  1.18 nM
6. CC(Nc1ncnc(N)c1C#N)c1nc2ccc(F)cc2c(N2CCOCC2)c1-c1ccccn1 (stereo not shown) [4-amino-6-(1-(6-fluoro-4-morpholino-3-(pyridin-2-yl)quinolin-2-yl)ethyl-amino)pyrimidine-5-carbonitrile]  1.19 nM
7. CC(Nc1ncnc(N)c1C#N)c1nc2ccc(F)cc2c(S(C)(=O)=O)c1-c1ccccc1 (stereo not shown) [4-amino-6-(1-(6-fluoro-4-(methylsulfonyl)-3-phenylquinolin-2-yl)ethylamino)pyrimidine-5-carbonitrile]  1.3 nM
8. C[C@H](Nc1ncnc(N)c1C#N)c1nc2cccc(F)c2c(S(C)(=O)=O)c1-c1ccccc1 [(S)-4-Amino-6-(1-(5-fluoro-4-(methylsulfonyl)-3-phenylquinolin-2-yl)ethylamino)pyrimidine-5-carbonitrile]  1.3 nM
9. CC(Nc1ncnc(N)c1C#N)c1nc2ccc(F)cc2c(CN2CCOCC2)c1-c1ccccc1 (stereo not shown) [4-amino-6-((-1-(6-fluoro-4-(4-morpholinylmethyl)-3-phenyl-2-quinolinyl)ethyl)amino)-5-pyrimidinecarbonitrile]  1.31 nM
10. COC(=O)c1c(-c2ccccc2)c(C(C)Nc2ncnc(N)c2C#N)nc2ccc(F)cc12 (stereo not shown) [Methyl 2-(1-(6-amino-5-cyanopyrimidin-4-ylamino)ethyl)-6-fluoro-3-phenylquinoline-4-carboxylate]  1.56 nM
11. CC(Nc1ncnc(N)c1C#N)c1nc2cccc(Cl)c2cc1-c1ccccn1 [4-amino-6-(((1S, 1R)-1-(5-chloro-3-(2-pyridinyl)-2-quinolinyl)ethyl)-amino)-5-pyrimidinecarbonitrile]  1.6 nM
12. C[C@H](Nc1ncnc(N)c1C#N)c1nc2ccc(F)cc2c(C(=O)NC2CC2)c1-c1ccccn1 [(S)-2-(1-(6-Amino-5-cyanopyrimidin-4-ylamino)ethyl)-N-cyclopropyl-6-fluoro-3-(pyridin-2-yl)quinoline-4-carboxamide]  1.64 nM
13. CC(Nc1ncnc2[nH]cnc12)c1nc2cccc(F)c2c(S(C)(=O)=O)c1-c1ccccc1 (stereo not shown) [N-(1-(5-Fluoro-4-(methylsulfonyl)-3-phenylquinolin-2-yl)ethyl)-9H-purin-6-amine]  2.24 nM
14. CC(Nc1ncnc2[nH]cnc12)c1nc2ccc(F)cc2c(S(C)(=O)=O)c1-c1ccccc1 (stereo not shown) [N-(1-(6-Fluoro-4-(methylsulfonyl)-3-phenylquinolin-2-yl)ethyl)-9H-purin-6-amine]  2.34 nM
15. CSc1c(-c2ccccc2)c(C(C)Nc2ncnc(N)c2C#N)nc2ccc(F)cc12 (stereo not shown) [4-amino-6-((1-(6-fluoro-4-(methylsulfanyl)-3-phenyl-2-quinolinyl)ethyl)amino)-5-pyrimidinecarbonitrile]  2.4 nM
16. C[C@H](Nc1ncnc2[nH]cnc12)c1nc2ccc(F)cc2cc1-c1ccccn1 [(S)—N-(1-(6-Fluoro-3-(pyridin-2-yl)quinolin-2-yl)ethyl)-9H-purin-6-amine]  4.15 nM
17. C[C@H](Nc1ncnc(N)c1C#N)c1nc2ccc(F)cc2c(C(=O)NCCO)c1-c1ccccn1 [(S)-2-(1-(6-Amino-5-cyanopyrimidin-4-ylamino)ethyl)-6-fluoro-N-(2-hydroxyethyl)-3-(pyridin-2-yl)quinoline-4-carboxamide]  7.57 nM
18. C[C@@H](c1nc2ccc(F)cc2cc1-c1ccccn1)n1nc(C#N)c2c(N)ncnc21 [(S)-4-amino-1-(1-(6-fluoro-3-(pyridin-2-yl)quinolin-2-yl)ethyl)-1H-pyrazolo[3,4-d]pyrimidine-3-carbonitrile]  7.67 nM
19. C[C@@H](Nc1ncnc(N)c1C#N)c1nc2cccc(Cl)c2cc1-c1ccccn1 [4-amino-6-(((1R)-1-(5-chloro-3-(2-pyridinyl)-2-quinolinyl)ethyl)amino)-5-pyrimidinecarbonitrile]  57.9 nM
20. COc1c(-c2cc(F)cc(F)c2)c([C@H](C)Nc2ncnc(N)c2C#N)nc2ccc(F)cc12 [(S)-4-Amino-6-(1-(3-(3,5-difluorophenyl)-6-fluoro-4-methoxyquinolin-2-yl)-ethylamino)pyrimidine-5-carbonitrile]  68.4 nM
21. C[C@H](Nc1ncnc(N)c1C#N)c1nc2ccc(F)cc2cc1-c1cccc(S(C)(=O)=O)n1 [(S)-4-Amino-6-(1-(6-fluoro-3-(6-(methylsulfonyl)pyridin-2-yl)quinolin-2-yl)ethylamino)pyrimidine-5-carbonitrile]  130 nM
22. C[C@@H](Nc1ncnc2[nH]cnc12)c1nc2ccc(F)cc2cc1-c1ccccn1 [(R)—N-(1-(6-fluoro-3-(pyridin-2-yl)quinolin-2-yl)ethyl)-9H-purin-6-amine]  217 nM
23. COc1c(-c2ccccc2)c([C@@H](C)Nc2ncnc(N)c2C#N)nc2ccc(F)cc12 [(R)-4-amino-6-(1-(6-fluoro-4-methoxy-3-phenylquinolin-2-yl)ethylamino)pyrimidine-5-carbonitrile]  271 nM
24. C[C@H](c1nc2ccc(F)cc2cc1-c1ccccn1)n1nc(C#N)c2c(N)ncnc21 [(R)-4-amino-1-(1-(6-fluoro-3-(pyridin-2-yl)quinolin-2-yl)ethyl)-1H-pyrazolo[3,4-d]pyrimidine-3-carbonitrile]  320 nM
25. C[C@@H](Nc1ncnc2[nH]cnc12)c1nc2ccc(F)cc2c(S(C)(=O)=O)c1-c1ccccc1 [(R)—N-(1-(6-fluoro-4-(methylsulfonyl)-3-phenylquinolin-2-yl)ethyl)-9H-purin-6-amine]  410 nM
26. C[C@@H](Nc1ncnc(N)c1C#N)c1nc2cccc(F)c2c(S(C)(=O)=O)c1-c1ccccc1 [4-amino-6-(((1R)-1-(5-fluoro-4-(methylsulfonyl)-3-phenyl-2-quinolinyl)ethyl)amino)-5-pyrimidinecarbonitrile]  466 nM
27. CC(Nc1cc(N)ncn1)c1nc2ccc(F)cc2cc1-c1ccccn1 (stereo not shown) [N4-(1-(6-Fluoro-3-(pyridin-2-yl)quinolin-2-yl)ethyl)pyrimidine-4,6-diamine]  3730 nM
28. C[C@@H](Nc1ccnc(N)n1)c1nc2ccc(F)cc2cc1-c1ccccn1 [N~4~-((1R)-1-(6-fluoro-3-(2-pyridinyl)-2-quinolinyl)ethyl)-2,4-pyrimidinediamine]  5520 nM
29. CC(Nc1ccncn1)c1nc2ccc(F)cc2cc1-c1ccccn1 (stereo not shown) [N-(1-(6-Fluoro-3-(pyridin-2-yl)quinolin-2-yl)ethyl)pyrimidin-4-amine]  11600 nM

Tested on: model of systemic lupus erythematosis
Test: not given
Conditions: in vivo; cited from earlier work

In the case of `O=C1NC(=O)/C(=C\c2ccc3nccnc3c2)S1` [AS 605240], the “onset of disease in a model of systemic lupus erythematosis” value is given as “delay onset of disease”.

Tested on: mouse model of rheumatoid arthritis
Test: not given
Conditions: in vivo; cited from earlier work

For `O=C1NC(=O)/C(=C\c2ccc3nccnc3c2)S1` [AS 605240], the “efficacy in a mouse model of rheumatoid arthritis” value is given as “efficacious”.
